Reference: patent US20220402925A1, “COMPOUNDS AND METHODS FOR THE TREATMENT OF CYSTIC FIBROSIS” (Flatley Discovery Lab, LLC, priority 2019, published 2022)

These compounds were tested against T1, F508del CFTR (Homo sapiens, UniProt P13569, DEL508-508) (assay: Equivalent current assay in primary CF airway epithelial cells (Corrector Activity, NAUC normalized to 3 μM VX809)). Settings: NAUC as % of positive control (VX-809).
T1 construct: Primary CF airway epithelial cells were obtained from the UNC Cystic Fibrosis Tissue Procurement and Cell Culture Core; host or cells: primary CF airway epithelial cells
Assay type: cell-based
Summary of the method: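 Readout is NAUC: current area from forskolin/potentiator addition until CFTR-172, minus vehicle, relative to 3 μM VX809 (=1.0). Cells were primary CF epithelia at air-liquid interface ≥4 weeks, given basolateral compound for 24 h at 37° C; median of n≥4 replicates, sigmoid fit with nH fixed at 1.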

T1 sequence (P13569 with tags, fused parts or gaps DEL508-508): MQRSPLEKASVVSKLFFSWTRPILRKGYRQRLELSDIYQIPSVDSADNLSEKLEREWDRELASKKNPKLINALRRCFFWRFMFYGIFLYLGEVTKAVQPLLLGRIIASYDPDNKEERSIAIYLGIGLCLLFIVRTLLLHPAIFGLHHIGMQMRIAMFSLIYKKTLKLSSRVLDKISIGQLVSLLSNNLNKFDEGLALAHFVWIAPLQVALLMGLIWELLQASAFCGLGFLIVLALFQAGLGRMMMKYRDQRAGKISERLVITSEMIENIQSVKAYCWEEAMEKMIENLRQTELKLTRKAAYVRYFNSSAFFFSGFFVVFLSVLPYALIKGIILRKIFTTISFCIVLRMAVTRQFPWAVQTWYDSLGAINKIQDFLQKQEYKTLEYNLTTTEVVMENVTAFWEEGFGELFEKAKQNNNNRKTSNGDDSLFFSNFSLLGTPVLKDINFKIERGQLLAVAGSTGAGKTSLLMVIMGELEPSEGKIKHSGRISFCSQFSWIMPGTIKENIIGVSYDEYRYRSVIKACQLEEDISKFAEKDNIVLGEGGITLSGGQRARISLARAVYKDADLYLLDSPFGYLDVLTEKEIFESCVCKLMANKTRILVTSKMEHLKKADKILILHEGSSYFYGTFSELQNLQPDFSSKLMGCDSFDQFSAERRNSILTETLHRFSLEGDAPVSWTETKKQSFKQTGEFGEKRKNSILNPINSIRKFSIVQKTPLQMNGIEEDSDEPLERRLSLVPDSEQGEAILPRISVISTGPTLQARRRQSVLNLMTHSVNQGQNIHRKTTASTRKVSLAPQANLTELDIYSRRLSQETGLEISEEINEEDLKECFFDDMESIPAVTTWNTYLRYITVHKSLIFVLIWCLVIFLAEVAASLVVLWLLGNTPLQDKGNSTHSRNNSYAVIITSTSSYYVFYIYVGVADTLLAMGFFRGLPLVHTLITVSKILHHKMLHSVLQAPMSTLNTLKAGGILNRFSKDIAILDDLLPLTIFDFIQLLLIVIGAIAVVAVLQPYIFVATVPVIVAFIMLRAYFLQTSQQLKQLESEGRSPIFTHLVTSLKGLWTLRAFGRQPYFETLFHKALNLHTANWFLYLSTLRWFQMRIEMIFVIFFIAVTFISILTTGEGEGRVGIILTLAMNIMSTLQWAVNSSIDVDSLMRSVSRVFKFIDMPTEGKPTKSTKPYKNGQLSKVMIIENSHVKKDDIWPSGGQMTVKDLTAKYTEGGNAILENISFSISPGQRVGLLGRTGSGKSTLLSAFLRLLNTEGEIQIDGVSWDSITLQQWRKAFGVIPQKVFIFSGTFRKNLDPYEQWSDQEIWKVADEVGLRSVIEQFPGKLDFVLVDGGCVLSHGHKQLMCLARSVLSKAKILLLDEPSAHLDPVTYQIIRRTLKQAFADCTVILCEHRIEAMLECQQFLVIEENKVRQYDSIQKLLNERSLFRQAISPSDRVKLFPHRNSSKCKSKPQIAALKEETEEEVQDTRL

| Corr Activity (NAUC) | SMILES |
| --- | --- |
| ++ (NAUC 70-40% of positive control) | CCN(C(=O)Cn1nc(-c2cc(F)cc(C#N)c2)c2oc(C(F)F)cc2c1=O)c1ccc2c(c1C)OC(F)(F)O2 [Example 195] |
| +++ (NAUC>70% of positive control) | CN(C(=O)Cn1nc(-c2cccc(C#N)c2)c2oc(C(F)F)cc2c1=O)c1ccc2c(c1F)OC(F)(F)O2 [Example 197] |
| ++ (NAUC 70-40% of positive control) | O=C(Cn1nc(-c2cccc(Cl)c2)c2occc2c1=O)N1CCCc2c1ccc1c2OC(F)(F)O1 [Example 51] |
| ++ (NAUC 70-40% of positive control) | O=C(Cn1nc(-c2cc(Cl)cc(C(F)(F)F)c2)c2[nH]cnc2c1=O)N(c1ccc2c(c1)OC(F)(F)O2)C1CC1 [Example 401] |
| +++ (NAUC>70% of positive control) | CCN(C(=O)Cn1nc(-c2cccc(C#N)c2)c2[nH]cnc2c1=O)c1ccc2c(c1F)OC(F)(F)O2 [Example 250] |
| ++ (NAUC 70-40% of positive control) | COCCOc1cc(Cl)cc(-c2nn(CC(=O)N(c3ccc4c(c3)OC(F)(F)O4)C3CC3)c(=O)c3nc[nH]c23)c1 [Example 399] |
| +++ (NAUC>70% of positive control) | Cc1cc2c(=O)n(CC(=O)N(c3ccc4c(c3)OC(F)(F)O4)C3CC3)nc(-c3cc(F)cc(F)c3)c2o1 [Example 78] |
| + (NAUC<40% of positive control) | CCN(C(=O)Cn1nc(-c2ccc3[nH]c4ccccc4c3c2)c2[nH]cnc2c1=O)c1ccc2c(c1)OC(F)(F)O2 [Example 295] |
| +++ (NAUC>70% of positive control) | Cc1cc(C#N)cc(-c2nn(CC(=O)N(C)c3cc4c(cc3C)OC(F)(F)O4)c(=O)c3ccoc23)c1 [Example 165] |
| +++ (NAUC>70% of positive control) | CCN(C(=O)Cn1nc(-c2cc(Cl)cc(C#N)c2)c2occc2c1=O)c1ccc2c(c1C)OC(F)(F)O2 [Example 172] |
| ++ (NAUC 70-40% of positive control) | CCN(C(=O)Cn1nc(-c2cc(F)cc(OCC(F)(F)F)c2)c2[nH]cnc2c1=O)c1ccc2c(c1)OC(F)(F)O2 [Example 270] |
| ++ (NAUC 70-40% of positive control) | Cc1nc2ccc(N(C)C(=O)Cn3nc(-c4cccc(F)c4)c4oc5ccccc5c4c3=O)cc2o1 [Example 157] |
| +++ (NAUC>70% of positive control) | CCN(C(=O)Cn1nc(-c2cc(C)cc(C#N)c2)c2occc2c1=O)c1ccc2c(c1)OC(F)(F)O2 [Example 84] |
| +++ (NAUC>70% of positive control) | CCN(C(=O)Cn1nc(-c2cc(C)cc(F)c2)c2[nH]cnc2c1=O)c1ccc2c(c1)OC(F)(F)O2 [Example 262] |
| +++ (NAUC>70% of positive control) | CN(C(=O)Cn1nc(-c2cc(F)cc(F)c2)c2occc2c1=O)c1ccc2c(c1)OC(F)(F)O2 [Example 41] |
| + (NAUC<40% of positive control) | O=C(Cn1nc(-c2cccc(F)c2)c2[nH]cnc2c1=O)N(c1ccc2c(c1)OC(F)(F)O2)C1CC1 [Example 370] |
| +++ (NAUC>70% of positive control) | CCN(C(=O)Cn1nc(-c2cc(C#N)cc(C(F)(F)F)c2)c2[nH]cnc2c1=O)c1ccc2c(c1)OC(F)(F)O2 [Example 281] |
| +++ (NAUC>70% of positive control) | O=C(Cn1nc(-c2cc(Cl)cc(N3CCCC3)c2)c2[nH]cnc2c1=O)N(c1ccc2c(c1)OC(F)(F)O2)C1CC1 [Example 400] |
| ++ (NAUC 70-40% of positive control) | O=C(Cn1nc(-c2cccc(F)c2)c2occc2c1=O)N1CCCc2c1ccc1c2OC(F)(F)O1 [Example 102] |
| +++ (NAUC>70% of positive control) | CCN(C(=O)Cn1nc(-c2cccc(C#N)c2)c2[nH]ccc2c1=O)c1ccc2c(c1)OC(F)(F)O2 [Example 503] |
| ++ (NAUC 70-40% of positive control) | CCN(C(=O)Cn1nc(-c2cccc(Cl)c2)c2onc(C)c2c1=O)c1ccc2c(c1)OC(F)(F)O2 [Example 18] |
| +++ (NAUC>70% of positive control) | CCN(C(=O)Cn1nc(-c2cccc(F)c2)c2c(c1=O)CCC2)c1ccc2nc(C)oc2c1 [Example 43] |
| +++ (NAUC>70% of positive control) | CCN(C(=O)Cn1nc(-c2cc(Cl)cc(C(F)(F)F)c2)c2[nH]cnc2c1=O)c1ccc2c(c1)OC(F)(F)O2 [Example 278] |

| Corr Activity (NAUC) | SMILES |
| --- | --- |
| +++ (NAUC>70% of positive control) | CN(C(=O)Cn1nc(-c2cccc(C#N)c2)c2oc(C(F)F)cc2c1=O)c1ccc2c(c1)OC(F)(F)O2 [Example 180, 2-(7-(3-cyanophenyl)-2-(difluoromethyl)-4-oxofuro[2,3-d]pyridazin-5(4H)-yl)-N-(2,2-difluorobenzo[d][1,3]dioxol-5-yl)-N-methylacetamide] |
| ++ (NAUC 70-40% of positive control) | Cc1cc(-c2nn(CC(=O)N(c3ccc4c(c3)OC(F)(F)O4)C3CC3)c(=O)c3nc[nH]c23)cc(C(F)(F)F)c1 [Example 402] |
| ++ (NAUC 70-40% of positive control) | CCN(C(=O)Cn1nc(-c2cccc(C#N)c2)c2oc(Cl)cc2c1=O)c1ccc2c(c1)OC(F)(F)O2 [Example 63] |
| + (NAUC<40% of positive control) | CCN(C(=O)Cn1nc(-c2ccc3ccccc3c2)c2[nH]cnc2c1=O)c1ccc2c(c1)OC(F)(F)O2 [Example 292] |
| ++ (NAUC 70-40% of positive control) | O=C(Cn1nc(-c2cc(F)cc(F)c2)c2[nH]cnc2c1=O)N(c1ccc2c(c1)OC(F)(F)O2)C1CC1 [Example 380] |
| ++ (NAUC 70-40% of positive control) | N#Cc1cc(-c2nn(CC(=O)N(c3ccc4c(c3)OC(F)(F)O4)C3CC3)c(=O)c3nc[nH]c23)ccc1N1CCC1 [Example 487] |
| +++ (NAUC>70% of positive control) | CCN(C(=O)Cn1nc(-c2cc(C)cc(C#N)c2)c2oc(C(=O)NC(C)(C)C)cc2c1=O)c1cc2c(cc1C)OC(F)(F)O2 [Example 133] |
| + (NAUC<40% of positive control) | CCN(C(=O)Cn1nc(-c2ccc(-c3ccccc3)c(F)c2)c2[nH]cnc2c1=O)c1ccc2c(c1)OC(F)(F)O2 [Example 319] |
| +++ (NAUC>70% of positive control) | CCN(C(=O)Cn1nc(-c2cc(Cl)cc(C#N)c2)c2oc(C(F)F)cc2c1=O)c1ccc2c(c1)OC(F)(F)O2 [Example 192] |
| +++ (NAUC>70% of positive control) | CCN(C(=O)Cn1nc(-c2cc(F)cc(Cl)c2)c2oc(C3CCC3)cc2c1=O)c1ccc2c(c1)OC(F)(F)O2 [Example 236] |
| +++ (NAUC>70% of positive control) | Cc1cc2c(=O)n(CC(=O)N(C)c3ccc4c(c3)OC(F)(F)O4)nc(-c3cc(Cl)cc(Cl)c3)c2o1 [Example 70] |
| + (NAUC<40% of positive control) | CCN(C(=O)Cn1nc(-c2ccc(OC)c(S(=O)(=O)N3CCCC3)c2)c2[nH]cnc2c1=O)c1ccc2c(c1)OC(F)(F)O2 [Example 350] |
| ++ (NAUC 70-40% of positive control) | N#Cc1cc(-c2nn(CC(=O)N(c3ccc4c(c3)OC(F)(F)O4)C3CC3)c(=O)c3nc[nH]c23)cc(C(F)(F)F)c1 [Example 404] |
| +++ (NAUC>70% of positive control) | CCN(C(=O)Cn1nc(-c2cc(F)cc(Cl)c2)c2oc(C3CC3)cc2c1=O)c1ccc2c(c1)OC(F)(F)O2 [Example 223] |
| + (NAUC<40% of positive control) | O=C(Cn1nc(-c2ccc(C(F)(F)F)c(Cl)c2)c2[nH]cnc2c1=O)N(c1ccc2c(c1)OC(F)(F)O2)C1CC1 [Example 448] |
| +++ (NAUC>70% of positive control) | CCN(C(=O)Cn1nc(-c2cccc(C#N)c2)c2oc(C(=O)NC(C)(C)C)cc2c1=O)c1ccc2c(c1)OC(F)(F)O2 [Example 121] |
| + (NAUC<40% of positive control) | COc1cc(C)cc(-c2nn(CC(=O)N(c3ccc4c(c3)OC(F)(F)O4)C3CC3)c(=O)c3nc[nH]c23)c1 [Example 395] |
| + (NAUC<40% of positive control) | CCN(C(=O)Cn1nc(-c2cc(C(F)(F)F)cc(C(F)(F)F)c2)c2[nH]cnc2c1=O)c1ccc2c(c1)OC(F)(F)O2 [Example 260] |
| +++ (NAUC>70% of positive control) | CCN(C(=O)Cn1nc(-c2ccc(Cl)c(C#N)c2)c2[nH]cnc2c1=O)c1ccc2c(c1)OC(F)(F)O2 [Example 325] |
| + (NAUC<40% of positive control) | COC(=O)c1cc(Cl)cc(-c2nn(CC(=O)N(c3ccc4c(c3)OC(F)(F)O4)C3CC3)c(=O)c3nc[nH]c23)c1 [Example 390] |
| +++ (NAUC>70% of positive control) | CCN(C(=O)Cn1nc(-c2cccc(F)c2)c2occc2c1=O)c1ccc2c(c1F)OC(F)(F)O2 [Example 109] |
| ++ (NAUC 70-40% of positive control) | COc1cc(C#N)cc(-c2nn(CC(=O)N(c3ccc4c(c3)OC(F)(F)O4)C3CC3)c(=O)c3nc[nH]c23)c1 [Example 409] |
| +++ (NAUC>70% of positive control) | CCN(C(=O)Cn1nc(-c2cc(C)cc(C#N)c2)c2oc(C(=O)NC3(C(F)(F)F)CC3)cc2c1=O)c1ccc2c(c1)OC(F)(F)O2 [Example 152] |
